Measured values published in PubChem BioAssay (NCI).
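Compound exposure: 48 hours, 5 concentrations, 96-well plates. GI50: concentration for 50% inhibition of growth. TGI: total growth inhibition.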

Key:
Experiment in all cases: DTP human tumour cell line panel, 48 h
SK-MEL-5 melanoma = test system: SK-MEL-5 melanoma
SW-620 colon = test system: SW-620 colon
RXF 393 renal = test system: RXF 393 renal
LOX IMVI melanoma = test system: LOX IMVI melanoma
OVCAR-5 ovarian = test system: OVCAR-5 ovarian
UACC-62 melanoma = test system: UACC-62 melanoma
HOP-62 NSCLC = test system: HOP-62 NSCLC
HCC-2998 colon = test system: HCC-2998 colon
IGROV1 ovarian = test system: IGROV1 ovarian
MALME-3M melanoma = test system: MALME-3M melanoma
HCT-116 colon = test system: HCT-116 colon
SK-OV-3 ovarian = test system: SK-OV-3 ovarian
HCT-15 colon = test system: HCT-15 colon
EKVX NSCLC = test system: EKVX NSCLC
DU-145 prostate = test system: DU-145 prostate
HL-60(TB) leukemia = test system: HL-60(TB) leukemia
UO-31 renal = test system: UO-31 renal
NCI-H23 lung = test system: NCI-H23 lung
HT29 colon = test system: HT29 colon
A549 NSCLC = test system: A549 NSCLC
NCI-H226 lung = test system: NCI-H226 lung
RPMI-8226 leukemia = test system: RPMI-8226 leukemia
HS 578T breast = test system: HS 578T breast
U251 CNS = test system: U251 CNS
KM12 colon = test system: KM12 colon
NCI-H460 lung = test system: NCI-H460 lung
CAKI-1 renal = test system: CAKI-1 renal
SK-MEL-28 melanoma = test system: SK-MEL-28 melanoma
MDA-MB-231 breast = test system: MDA-MB-231 breast
ACHN renal = test system: ACHN renal
SNB-19 CNS = test system: SNB-19 CNS
BT-549 breast = test system: BT-549 breast
PC-3 prostate = test system: PC-3 prostate
K-562 leukemia = test system: K-562 leukemia
CCRF-CEM leukemia = test system: CCRF-CEM leukemia
MCF7 breast = test system: MCF7 breast
786-0 renal = test system: 786-0 renal
SF-539 CNS = test system: SF-539 CNS
SN12C renal = test system: SN12C renal
SK-MEL-2 melanoma = test system: SK-MEL-2 melanoma
OVCAR-3 ovarian = test system: OVCAR-3 ovarian
SF-268 CNS = test system: SF-268 CNS
A498 renal = test system: A498 renal
M14 melanoma = test system: M14 melanoma
COLO 205 colon = test system: COLO 205 colon
UACC-257 melanoma = test system: UACC-257 melanoma
OVCAR-4 ovarian = test system: OVCAR-4 ovarian
SNB-75 CNS = test system: SNB-75 CNS
NCI-H522 lung = test system: NCI-H522 lung
TK-10 renal = test system: TK-10 renal
OVCAR-8 ovarian = test system: OVCAR-8 ovarian
MOLT-4 leukemia = test system: MOLT-4 leukemia
NCI/ADR-RES ovarian = test system: NCI/ADR-RES ovarian
MDA-MB-435 = test system: MDA-MB-435
T-47D breast = test system: T-47D breast
HOP-92 NSCLC = test system: HOP-92 NSCLC

O=c1c2c3c(sc2n2c(CCl)nnc2n1Cc1ccccc1)CCCC3
GI50 (SK-MEL-5 melanoma): 2.94 µM
TGI (SK-MEL-5 melanoma): 7.62 µM
GI50 (SW-620 colon): 1.76 µM
TGI (SW-620 colon): 3.51 µM
GI50 (RXF 393 renal): 1.98 µM
TGI (RXF 393 renal): 4.17 µM
GI50 (LOX IMVI melanoma): 0.284 µM
TGI (LOX IMVI melanoma): 1.32 µM
GI50 (OVCAR-5 ovarian): 2.34 µM
TGI (OVCAR-5 ovarian): 5.23 µM
GI50 (UACC-62 melanoma): 1.99 µM
TGI (UACC-62 melanoma): 5.64 µM
GI50 (HOP-62 NSCLC): 3.55 µM
TGI (HOP-62 NSCLC): 7.87 µM
GI50 (HCC-2998 colon): 1.74 µM
TGI (HCC-2998 colon): 3.39 µM
GI50 (IGROV1 ovarian): 0.0645 µM
TGI (IGROV1 ovarian): 1.53 µM
GI50 (MALME-3M melanoma): 3.48 µM
TGI (MALME-3M melanoma): 10.7 µM
GI50 (HCT-116 colon): 1.51 µM
TGI (HCT-116 colon): 3.13 µM
GI50 (SK-OV-3 ovarian): 13.4 µM
TGI (SK-OV-3 ovarian): 48.8 µM
GI50 (HCT-15 colon): 1.86 µM
TGI (HCT-15 colon): 5.34 µM
GI50 (EKVX NSCLC): 7.96 µM
TGI (EKVX NSCLC): 27.9 µM
GI50 (DU-145 prostate): 2.45 µM
TGI (DU-145 prostate): 6.18 µM
GI50 (HL-60(TB) leukemia): 2.16 µM
TGI (HL-60(TB) leukemia): > 19.8 µM
GI50 (UO-31 renal): 1.51 µM
TGI (UO-31 renal): 2.88 µM
GI50 (NCI-H23 lung): 2.27 µM
TGI (NCI-H23 lung): 8.43 µM
GI50 (HT29 colon): 1.95 µM
TGI (HT29 colon): 4.05 µM
GI50 (A549 NSCLC): 2.79 µM
TGI (A549 NSCLC): 7.3 µM
GI50 (NCI-H226 lung): 1.74 µM
TGI (NCI-H226 lung): 4.37 µM
GI50 (RPMI-8226 leukemia): 1.97 µM
TGI (RPMI-8226 leukemia): 5.05 µM
GI50 (HS 578T breast): 1.92 µM
TGI (HS 578T breast): 5.9 µM
GI50 (U251 CNS): 1.6 µM
TGI (U251 CNS): 3.03 µM
GI50 (KM12 colon): 2.39 µM
TGI (KM12 colon): 6.05 µM
GI50 (NCI-H460 lung): 2.58 µM
TGI (NCI-H460 lung): 7.98 µM
GI50 (CAKI-1 renal): 2.9 µM
TGI (CAKI-1 renal): 7.79 µM
GI50 (SK-MEL-28 melanoma): 1.7 µM
TGI (SK-MEL-28 melanoma): 3.16 µM
GI50 (MDA-MB-231 breast): 2.22 µM
TGI (MDA-MB-231 breast): 5.23 µM
GI50 (ACHN renal): 1.6 µM
TGI (ACHN renal): 2.96 µM
GI50 (SNB-19 CNS): 15.8 µM
TGI (SNB-19 CNS): 32.1 µM
GI50 (BT-549 breast): 2.41 µM
TGI (BT-549 breast): 9.44 µM
GI50 (PC-3 prostate): 1.85 µM
TGI (PC-3 prostate): 4.01 µM
GI50 (K-562 leukemia): 2.33 µM
TGI (K-562 leukemia): 5.39 µM
GI50 (CCRF-CEM leukemia): 0.434 µM
GI50 (MCF7 breast): 1.75 µM
TGI (MCF7 breast): 4.54 µM
GI50 (786-0 renal): 2.01 µM
TGI (786-0 renal): 3.75 µM
GI50 (SF-539 CNS): 3.24 µM
TGI (SF-539 CNS): 10.1 µM
GI50 (SN12C renal): 1.62 µM
TGI (SN12C renal): 3.86 µM
GI50 (SK-MEL-2 melanoma): 1.53 µM
TGI (SK-MEL-2 melanoma): 2.98 µM
GI50 (OVCAR-3 ovarian): 1.76 µM
TGI (OVCAR-3 ovarian): 3.21 µM
GI50 (SF-268 CNS): 1.83 µM
TGI (SF-268 CNS): 3.72 µM
GI50 (A498 renal): 9.17 µM
TGI (A498 renal): 23.1 µM
GI50 (M14 melanoma): 1.79 µM
TGI (M14 melanoma): 5.43 µM
GI50 (COLO 205 colon): 1.94 µM
TGI (COLO 205 colon): 4.05 µM
GI50 (UACC-257 melanoma): 2.12 µM
TGI (UACC-257 melanoma): 4.29 µM
GI50 (OVCAR-4 ovarian): 2.79 µM
TGI (OVCAR-4 ovarian): 7.74 µM
GI50 (SNB-75 CNS): 4.51 µM
TGI (SNB-75 CNS): 9.03 µM
GI50 (NCI-H522 lung): 1.89 µM
TGI (NCI-H522 lung): 4.17 µM
GI50 (TK-10 renal): 5.25 µM
TGI (TK-10 renal): 10.7 µM
GI50 (OVCAR-8 ovarian): 2.28 µM
TGI (OVCAR-8 ovarian): 6.19 µM
GI50 (MOLT-4 leukemia): 3.62 µM
TGI (MOLT-4 leukemia): 17.1 µM
GI50 (NCI/ADR-RES ovarian): 3.84 µM
TGI (NCI/ADR-RES ovarian): > 51.1 µM
GI50 (MDA-MB-435): 3.4 µM
TGI (MDA-MB-435): 11 µM
GI50 (T-47D breast): 2.5 µM
TGI (T-47D breast): 6.5 µM
GI50 (HOP-92 NSCLC): 1.83 µM
TGI (HOP-92 NSCLC): 3.8 µM
